Results: ChEMBL document CHEMBL5252581, “Using a Bioactive Eremophila-Derived Serrulatane Scaffold to Generate a Unique Carbamate Library for Anti-infective Evaluations” (J Nat Prod, 2023)

Experiments:
Haemonchus contortus [1] = experiment: Anthelmintic activity against Haemonchus contortus assessed as induction of skinny phenotype at 50 uM measured at 168 hrs by microscope based analysis; assay type: functional
[2] = Cytotoxicity against HEK293 cells assessed as inhibition of cell growth at 80 uM incubated for 72 hrs by alamar blue dye based fluorescence assay relative to control; assay type: toxicity; conditions: human
Plasmodium falciparum [3] = experiment: Antimalarial activity against chloroquine sensitive Plasmodium falciparum 3D7 assessed as parasite growth inhibition at 80 uM incubated for 72 hrs by DAPI staining method; assay type: functional
[4] = tested on: Human immunodeficiency virus 1; experiment: Reversal of HIV-1 latency infected in GFP-fused human J-Lat 10.6 cells assessed as inhibition of 160 nM PMA-induced HIV production at 100 ug/ml incubated for 24 hrs by flow cytometry analysis relative to control; assay type: functional; conditions: Human immunodeficiency virus 1, J-Lat 10.6
Haemonchus contortus [5] = experiment: Anthelmintic activity against third stage larvae of Haemonchus contortus assessed as reduction in larval motility measured at 168 hrs by microscope based analysis; assay type: functional, organism-based
Plasmodium falciparum [6] = experiment: Antimalarial activity against multidrug resistant Plasmodium falciparum Dd2 assessed as parasite growth inhibition at 80 uM incubated for 72 hrs by DAPI staining method; assay type: functional
Haemonchus contortus [7] = experiment: Anthelmintic activity against third stage larvae of Haemonchus contortus assessed as reduction in larval motility at 50 uM measured at 168 hrs by microscope based analysis relative to control; assay type: functional; parameters: scale not given: the % may be the effect or the level left
Haemonchus contortus [8] = experiment: Anthelmintic activity against Haemonchus contortus assessed as inhibition of L4 development at 50 uM measured at 168 hrs by microscope based analysis relative to control; assay type: functional
[9] = Resistance index, ratio of IC50 for antimalarial activity against multidrug resistant Plasmodium falciparum Dd2 to IC50 for antimalarial activity against chloroquine sensitive Plasmodium falciparum 3D7; assay type: toxicity
[10] = Selectivity index, ratio of IC50 for cytotoxicity against HEK293 cells to IC50 for antimalarial activity against multidrug resistant Plasmodium falciparum Dd2; assay type: toxicity, cell-based; conditions: human, read-out: Ratio IC50
[11] = Selectivity index, ratio of IC50 for cytotoxicity against HEK293 cells to IC50 for antimalarial activity against chloroquine sensitive Plasmodium falciparum 3D7; assay type: toxicity, cell-based; conditions: human, read-out: Ratio IC50
Plasmodium falciparum [12] = experiment: Antimalarial activity against chloroquine sensitive Plasmodium falciparum 3D7 assessed as parasite growth inhibition incubated for 72 hrs by DAPI staining method; assay type: functional, organism-based; conditions: 3D7, 72 h
Plasmodium falciparum [13] = experiment: Antimalarial activity against multidrug resistant Plasmodium falciparum Dd2 assessed as parasite growth inhibition incubated for 72 hrs by DAPI staining method; assay type: functional, organism-based; conditions: Dd2, 72 h
Haemonchus contortus [14] = experiment: Anthelmintic activity against fourth stage larvae of Haemonchus contortus assessed as induction of skinny phenotype at 100 uM measured after 7 days relative to control; assay type: functional; conditions: time 7 day
Haemonchus contortus [15] = experiment: Anthelmintic activity against fourth stage larvae of Haemonchus contortus assessed as induction of skinny phenotype measured after 7 days; assay type: functional, organism-based; conditions: 168 h
[16] = tested on: Human immunodeficiency virus 1; experiment: Reversal of HIV-1 latency infected in GFP-fused human J-Lat 10.6 cells assessed as inhibition of 50 nM PMA-induced HIV production by flow cytometry analysis; assay type: functional, organism-based; conditions: Human immunodeficiency virus 1, J-Lat 10.6
Haemonchus contortus [17] = experiment: Anthelmintic activity against fourth stage larvae of Haemonchus contortus assessed as midbody width of L4 larvae measured after 7 days by microscopic analysis (reference value: 16.3+/-1.5 uM); assay type: functional; conditions: time 7 day
[18] = tested on: Human immunodeficiency virus 1; experiment: Reversal of HIV-1 latency infected in GFP-fused human J-Lat 10.6 cells assessed as inhibition of 160 nM PMA-induced HIV production incubated for 24 hrs by flow cytometry analysis; assay type: functional, organism-based; conditions: Human immunodeficiency virus 1, J-Lat 10.6, 24 h
[19] = Cytotoxicity against HEK293 cells assessed as inhibition of cell growth incubated for 72 hrs by alamar blue dye based fluorescence assay; assay type: toxicity; conditions: human

Row | Structure (SMILES) | Activity (Haemonchus contortus [1]) | inhibition at 72 h, 80 µM [2] | inhibition at 80 µM (Plasmodium falciparum [3]) | inhibition at 100 µg/mL [4] | IC50 (Haemonchus contortus [5]) | inhibition at 80 µM (Plasmodium falciparum [6]) | Activity (Haemonchus contortus [7]) | inhibition at 50 µM (Haemonchus contortus [8]) | Ratio IC50 [9] | selectivity ratio [10] | selectivity ratio [11] | IC50 (Plasmodium falciparum [12]) | IC50 (Plasmodium falciparum [13]) | Activity (Haemonchus contortus [14]) | IC50 (Haemonchus contortus [15]) | EC50 [16] | Activity (Haemonchus contortus [17]) | EC50 [18] | IC50 at 72 h [19]
1 | CC(C)=CCC[C@H](C)[C@H]1c2cc(C(=O)O)c(O)c(O)c2[C@H](C)C[C@H]1O | 0% | 8% | < 41% | < 10% | 3.6 µM | < 41% | 16.9% | 4% | – | – | – | – | – | – | – | – | – | – | –
2 | COC(=O)c1cc2c(c(OC)c1OC)[C@H](C)C[C@@H](OC(=O)Nc1ccccc1)[C@H]2[C@@H](C)CCC=C(C)C | 0% | 47% | – | 29.3% | > 50 µM | > 41% | 9.6% | 4% | 1.1 | 6.3 | 6.9 | 11.6 µM | – | – | – | – | – | – | –
3 | COC(=O)c1cc2c(c(OC)c1OC)[C@H](C)C[C@@H](OC(=O)Nc1ccc(C)cc1)[C@H]2[C@@H](C)CCC=C(C)C | 0% | 12% | – | 36.8% | 7.1 µM | – | 12.9% | 2.3% | 1.1 | 6.2 | 6.6 | 12.2 µM | 12.9 µM | – | – | – | – | – | –
4 | COC(=O)c1cc2c(c(OC)c1OC)[C@H](C)C[C@@H](OC(=O)NCc1ccccc1)[C@H]2[C@@H](C)CCC=C(C)C | 0% | 24% | > 41% | < 10% | 0.4 µM | > 41% | 44.7% | -4.4% | – | – | – | – | – | – | – | – | – | – | –
5 | COC(=O)c1cc2c(c(OC)c1OC)[C@H](C)C[C@@H](O)[C@H]2[C@@H](C)CCC=C(C)C | 59.1% | 4% | > 41% | 66.5% | 4.9 µM | > 41% | 28.3% | 5.3% | – | – | – | – | – | 78.4% | 13.5 µM | 38.3 µM | 8.8 µM | 146 µM | –
6 | COC(=O)c1cc2c(c(OC)c1OC)[C@H](C)C[C@@H](OC(=O)Nc1ccc(C#N)cc1)[C@H]2[C@@H](C)CCC=C(C)C | 1.7% | 2% | < 41% | 59% | 9 µM | < 41% | 6.8% | 12% | – | – | – | – | – | – | – | – | – | 96.7 µM | –
7 | COC(=O)c1cc2c(c(OC)c1OC)[C@H](C)C[C@@H](OC(=O)NS(=O)(=O)c1ccc(C)cc1)[C@H]2[C@@H](C)CCC=C(C)C | 67.5% | 11% | > 41% | 20.7% | 6.2 µM | > 41% | 15.6% | 21.7% | – | – | – | – | – | – | – | – | – | – | –
8 | COC(=O)c1cc2c(c(OC)c1OC)[C@H](C)C[C@@H](OC(=O)Nc1ccc(Cl)cc1)[C@H]2[C@@H](C)CCC=C(C)C | 0% | 3.1% | – | 31.7% | 1.8 µM | – | 26.4% | 2.5% | – | 6.1 | 6.9 | 11.7 µM | 13.2 µM | – | – | – | – | – | –
9 | COC(=O)c1cc2c(c(OC)c1OC)[C@H](C)C[C@@H](OC(=O)Nc1ccc(F)cc1)[C@H]2[C@@H](C)CCC=C(C)C | 0% | 25% | – | 28.7% | 31.6 µM | – | 36.2% | 3.2% | 1.2 | 7.4 | 9.2 | 8.7 µM | 10.8 µM | – | – | – | – | – | –
10 | COC(=O)c1cc2c(c(OC)c1OC)[C@H](C)C[C@@H](OC(=O)Nc1cccc(Cl)c1)[C@H]2[C@@H](C)CCC=C(C)C | 0% | 42% | – | 37.2% | 1.6 µM | – | 39.1% | 7.1% | 1 | 8.7 | 8.8 | 9.1 µM | 9.2 µM | – | – | – | – | – | –
11 | COC(=O)c1cc2c(c(OC)c1OC)[C@H](C)C[C@@H](OC(=O)Nc1ccc(OC)cc1)[C@H]2[C@@H](C)CCC=C(C)C | 0% | 26% | – | 22.9% | > 50 µM | – | 18.3% | 2% | 1.1 | 7.9 | 8.6 | 9.3 µM | 10.1 µM | – | – | – | – | – | –
12 | COC(=O)c1cc2c(c(OC)c1OC)[C@H](C)C[C@@H](OC(=O)Nc1cc(C(F)(F)F)cc(C(F)(F)F)c1)[C@H]2[C@@H](C)CCC=C(C)C | 0% | 34% | – | 39.1% | 0.8 µM | – | 16.9% | 3.6% | 2.5 | 6.9 | 17.5 | 4.6 µM | 11.6 µM | – | – | – | – | – | –
13 | COC(=O)c1cc2c(c(OC)c1OC)[C@H](C)C[C@@H](OC(=O)Nc1ccc([N+](=O)[O-])cc1)[C@H]2[C@@H](C)CCC=C(C)C | 60% | 52% | – | 43.5% | 6.4 µM | – | 30.4% | 4.8% | 1.3 | 7.5 | 5 | 7.6 µM | 10.6 µM | – | – | – | – | – | –
14 | C[C@H]1[C@@H](O)O[C@@H]2O[C@@]3(C)CC[C@H]4[C@H](C)CC[C@@H]1[C@@]24OO3 [ARTENIMOL] | – | – | – | – | – | – | – | – | 2.2 | > 3080 | > 6680 | – | – | – | – | – | – | – | > 4 µM
15 | CCN(CC)CCCC(C)Nc1ccnc2cc(Cl)ccc12 (stereo not given) [CHLOROQUINE] | – | – | – | – | – | – | – | – | – | – | – | – | – | – | – | – | – | – | > 10 µM
16 | C[C@](C#N)(COc1cc(C#N)ccc1C(F)(F)F)NC(=O)c1ccc(SC(F)(F)F)cc1 [MONEPANTEL] | 0% | – | – | – | 0.2 µM | – | 99.2% | 98% | – | – | – | – | – | – | – | – | – | – | –
17 | CO/N=C1\C[C@]2(C[C@@H]3C[C@@H](C/C=C(\C)C[C@@H](C)/C=C/C=C4\CO[C@@H]5[C@H](O)C(C)=C[C@@H](C(=O)O3)[C@]45O)O2)O[C@H](/C(C)=C/C(C)C)[C@H]1C [MOXIDECTIN] | 0% | – | – | – | 3 µM | – | 88.2% | 89.7% | – | – | – | – | – | – | – | – | – | – | –
18 | COc1ccc(C[C@H](N)C(=O)N[C@H]2[C@@H](O)[C@H](n3cnc4c(N(C)C)ncnc43)O[C@@H]2CO)cc1 [PUROMYCIN] | – | – | – | – | – | – | – | – | 1.9 | 8.2 | 15.5 | 0.0429 µM | 0.0814 µM | – | – | – | – | – | 0.664 µM
19 | CCc1nc(N)nc(N)c1-c1ccc(Cl)cc1 [PYRIMETHAMINE] | – | – | – | – | – | – | – | – | > 1010 | – | > 1010 | – | – | – | – | – | – | – | > 10 µM
